According to publication PMC9814779, “A triple farnesoid X receptor and peroxisome proliferator-activated receptor α/δ activator reverses hepatic fibrosis in diet-induced NASH in mice” (Communications Chemistry, 2020):
Read-outs that look alike come from different tables or passages of the source.

How the values were obtained:
Assay type in all cases: cell-based
Design in all cases: Emax: dose or concentration left out as unconfirmed
[1] = biological target: T1, human FXR:retinoid X receptor (RXR) heterodimer (Homo sapiens, UniProt Q96RI1); assay: Full-length FXR reporter gene assay (BSEP response element) in HeLa cells; details: for FXR max. rel. act.: Supplementary Table 1, relative to GW4064 at 3 µM; for Emax: read-out: max. rel. act. FXR
T1 construct: pcDNA3-hFXR[32] and pSG5-hRXR[33] served for receptor overexpression in the full-length FXR assay; expressed in transfected cells; host or cells: HeLa

[2] = biological target: T2, human PPARα ligand-binding domain (Gal4 chimera) (Homo sapiens, UniProt Q07869); assay: Gal4 hybrid reporter gene assay, PPARα
T2 construct: coding for the hinge region and LBD of the canonical isoform of the respective nuclear receptor; expressed in transfected cells; host or cells: HEK293T
T2 sequence (Q07869 239-466 limits assumed): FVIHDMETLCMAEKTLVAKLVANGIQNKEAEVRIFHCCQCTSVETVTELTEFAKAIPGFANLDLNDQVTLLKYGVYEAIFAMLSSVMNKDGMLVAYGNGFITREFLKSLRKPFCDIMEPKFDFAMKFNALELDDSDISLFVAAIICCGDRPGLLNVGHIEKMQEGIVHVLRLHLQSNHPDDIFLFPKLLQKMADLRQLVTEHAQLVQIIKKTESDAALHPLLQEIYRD

[3] = biological target: T3, human PPARδ ligand-binding domain (Gal4 chimera) (Homo sapiens, UniProt Q03181); assay: Gal4 hybrid reporter gene assay, PPARδ
T3 construct: coding for the hinge region and LBD of the canonical isoform of the respective nuclear receptor; expressed in transfected cells; host or cells: HEK293T
T3 sequence (Q03181 211-439 limits assumed): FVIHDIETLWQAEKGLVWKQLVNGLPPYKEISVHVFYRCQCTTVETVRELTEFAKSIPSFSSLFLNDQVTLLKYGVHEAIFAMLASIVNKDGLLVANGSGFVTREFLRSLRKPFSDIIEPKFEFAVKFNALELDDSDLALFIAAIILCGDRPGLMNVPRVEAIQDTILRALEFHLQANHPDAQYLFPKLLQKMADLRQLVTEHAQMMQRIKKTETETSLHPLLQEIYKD

[4] = biological target: T4, human PPARγ ligand-binding domain (Gal4 chimera) (Homo sapiens, UniProt P37231); assay: Gal4 hybrid reporter gene assay, PPARγ
T4 construct: coding for the hinge region and LBD of the canonical isoform of the respective nuclear receptor; expressed in transfected cells; host or cells: HEK293T
T4 sequence (P37231 238-503 limits assumed): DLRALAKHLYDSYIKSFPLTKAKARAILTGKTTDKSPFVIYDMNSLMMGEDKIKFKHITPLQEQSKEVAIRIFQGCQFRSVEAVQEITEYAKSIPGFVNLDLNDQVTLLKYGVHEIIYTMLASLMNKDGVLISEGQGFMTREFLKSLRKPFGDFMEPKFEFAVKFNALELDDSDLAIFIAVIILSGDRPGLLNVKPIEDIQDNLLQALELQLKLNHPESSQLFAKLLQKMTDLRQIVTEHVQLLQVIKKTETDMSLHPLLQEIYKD

[5] = Supplementary Table 1, chromene derivatives, mean ± SEM, n ≥ 2, read-out: FXR EC50
[6] = PPAR EC50 [M], Supplementary Table 1, chromene derivatives, mean ± SEM, n ≥ 2
[7] = Supplementary Table 1, chromene derivatives, mean ± SEM, n ≥ 2, read-out: PPAR EC50
[8] = HeLa, mean ± SEM, n = 3, read-out: EC50 [μM] FXR
[9] = EC50 [μM] PPARα, HEK293T, mean ± SEM, n = 3
[10] = EC50 [μM] PPARδ, HEK293T, mean ± SEM, n = 3
[11] = HEK293T, mean ± SEM, n = 3, read-out: EC50 [μM] PPARδ
[12] = HEK293T, mean ± SEM, n = 3, read-out: EC50 [μM] PPARγ

T1 sequence (P19793 whole entry): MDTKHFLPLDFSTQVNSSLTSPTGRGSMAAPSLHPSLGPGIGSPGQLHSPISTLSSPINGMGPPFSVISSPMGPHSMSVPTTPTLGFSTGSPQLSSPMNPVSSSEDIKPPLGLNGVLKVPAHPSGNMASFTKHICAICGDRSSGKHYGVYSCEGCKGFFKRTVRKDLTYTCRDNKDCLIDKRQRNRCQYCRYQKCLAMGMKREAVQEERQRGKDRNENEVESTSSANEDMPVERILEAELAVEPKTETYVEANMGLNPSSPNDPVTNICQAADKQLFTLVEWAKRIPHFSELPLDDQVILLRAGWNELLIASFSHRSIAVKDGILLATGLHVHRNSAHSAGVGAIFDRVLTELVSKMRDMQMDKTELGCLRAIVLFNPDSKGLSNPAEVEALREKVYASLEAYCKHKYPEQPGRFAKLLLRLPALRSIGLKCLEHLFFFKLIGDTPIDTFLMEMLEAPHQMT
T1 sequence (Q96RI1 whole entry): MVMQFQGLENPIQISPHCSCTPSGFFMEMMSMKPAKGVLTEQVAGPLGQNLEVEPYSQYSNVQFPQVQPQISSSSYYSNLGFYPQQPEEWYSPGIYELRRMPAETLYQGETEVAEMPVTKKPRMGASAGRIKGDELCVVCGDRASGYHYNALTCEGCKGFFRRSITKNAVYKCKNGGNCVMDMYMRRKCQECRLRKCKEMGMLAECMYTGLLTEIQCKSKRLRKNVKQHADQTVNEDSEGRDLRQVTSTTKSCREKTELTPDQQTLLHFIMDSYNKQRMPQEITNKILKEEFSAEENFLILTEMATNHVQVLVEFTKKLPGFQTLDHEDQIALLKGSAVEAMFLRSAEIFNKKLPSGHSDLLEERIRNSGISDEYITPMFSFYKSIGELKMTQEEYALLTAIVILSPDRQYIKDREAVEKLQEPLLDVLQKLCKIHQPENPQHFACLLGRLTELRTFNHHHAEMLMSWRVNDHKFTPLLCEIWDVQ

Row | Structure (SMILES) | Emax ([1]; HeLa) [%] | EC50 [1, 8] [µM] | EC50 [2, 9] [M] | Emax ([2]; read-out: max. rel. act. PPARα) [%] | EC50 [3, 10] [µM] | Emax ([3]; read-out: max. rel. act. PPARδ) [%] | EC50 [4] [µM] | Emax ([4]; read-out: max. rel. act. PPARγ) [%] | other results
1 | O=C(O)CCc1cccc(NC(=O)c2ccccc2NC(=O)C2=Cc3ccccc3OC2)c1 [S1, 3-(3-[2-{2H-Chromene-3-carboxamido}benzamido]phenyl)propanoic acid] | – | – | – | – | – | – | – | – | EC50 [1, 5]: 4.1 ± 0.8 µM; FXR max. rel. act. ([1]; n ≥ 2): 14 ± 1%; EC50 [2, 6]: 5.2e-06 ± 8e-07 M; Emax ([2]; read-out: PPAR max. rel. act.): 26 ± 3%; EC50 [3, 7]: 1.2 ± 0.1 µM; Emax ([3]; read-out: PPAR max. rel. act.): 26 ± 1%; EC50 [4, 7]: 7.7 ± 0.6 µM; Emax ([4]; read-out: PPAR max. rel. act.): 6.6 ± 0.2%
2 | O=C(O)CCc1cccc(NC(=O)c2cc(Cl)ccc2NC(=O)c2ccc3ccccc3c2)c1 [compound 25] | 12 | 2.6 ± 0.4 | 9e-07 ± 2e-07 | 42 | 0.28 ± 0.03 | 17 | 6 ± 1 | 26 | –
3 | O=C(O)CCc1cccc(NC(=O)c2cc(OC(F)(F)F)ccc2NC(=O)c2ccc3ccccc3c2)c1 [compound 28] | – | > 10 | 2.1e-07 ± 2e-08 | 54 | 0.1 ± 0.01 | 19 | 1.1 ± 0.2 | 18 | –
4 | O=C(O)CCc1cccc(NC(=O)c2ccc(Cl)cc2NC(=O)c2ccc3ccccc3c2)c1 [compound 20] | – | > 10 | 3e-06 ± 1e-07 | 16 | 1.9 ± 0.2 | 16 | 1.4 ± 0.1 | 6 | –
5 | Cc1cccc2c1OCC(C(=O)Nc1ccccc1C(=O)Nc1cccc(CCC(=O)O)c1)=C2 [S8] | – | – | – | – | – | – | – | – | EC50 [1, 5]: > 10 µM; EC50 [2, 6]: 3.5e-06 ± 2e-07 M; Emax ([2]; read-out: PPAR max. rel. act.): 29 ± 1%; EC50 [3, 7]: 1.2 ± 0.4 µM; Emax ([3]; read-out: PPAR max. rel. act.): 18 ± 2%; EC50 [4, 7]: 3.1 ± 0.2 µM; Emax ([4]; read-out: PPAR max. rel. act.): 9.3 ± 0.5%
6 | O=C(O)CCc1cccc(NC(=O)c2cc3c(cc2NC(=O)c2ccc4ccccc4c2)OCO3)c1 [compound 29] | 14 | 2.9 ± 0.6 | 4.6e-07 ± 3e-08 | 25 | 0.4 ± 0.1 | 31 | 0.9 ± 0.3 | 15 | –
7 | O=C(O)Cc1ccccc1NC(=O)c1ccccc1NC(=O)c1ccc2ccccc2c1 [compound 7] | 31 | 9.2 ± 0.2 | 1.4e-06 ± 1e-07 | 33 | > 10 | – | 1.7 ± 0.1 | 17 ± 10 | –
8 | CC(C)(Nc1cccc(NC(=O)c2ccccc2NC(=O)c2ccc3ccccc3c2)c1)C(=O)O [compound 15] | 10 | 0.45 ± 0.01 | 1.7e-06 ± 1e-07 | 71 | 3.6 ± 0.2 | 42 | 5.1 ± 0.9 | 18 | –
9 | O=C(O)CCc1cccc(NC(=O)c2ccccc2NC(=O)c2ccc(-c3cccs3)cc2)c1 [compound 33] | 21 | 1.7 ± 0.4 | 1.5e-06 ± 1e-07 | 27 | 0.64 ± 0.06 | 35 | 1.4 ± 0.2 | 11 | –
10 | O=C(O)CCc1cccc(NC(=O)c2ccccc2NC(=O)c2ccc3ccccc3c2)c1 [compound 9] | 20 | 2.6 ± 0.3 | 1e-06 ± 2e-07 | 31 | 0.65 ± 0.03 | 28 | 2.6 ± 0.3 | 19 | –
11 | CC(C)(C)c1ccc(C(=O)Nc2cccc(CCC(=O)O)c2)c(NC(=O)c2ccc3ccccc3c2)c1 [compound 24] | – | – | 3.1e-07 ± 8e-08 | 63 | – | – | 1.5 ± 0.1 | 20 | preference over PPARγ ([4]; triple FXR/PPARα/δ potency versus PPARγ): approximately fivefold preference over PPARγ
12 | O=C(O)CCc1cccc(NC(=O)c2cc(O)ccc2NC(=O)c2ccc3ccccc3c2)c1 [compound 26] | – | > 10 | 8.9e-06 ± 8e-07 | 28 | 10 ± 2 | 24 | 13 ± 1 | 9 | –
13 | O=C(O)CCc1cccc(NC(=O)c2ccccc2NC(=O)c2ccc(-c3cocn3)cc2)c1 [compound 37] | 41 | 6.9 ± 0.3 | 2e-05 ± 1e-06 | 36 | 12 ± 1 | 52 | 6 ± 1 | 15 | –
14 | Cc1ccc2c(c1)OCC(C(=O)Nc1ccccc1C(=O)Nc1cccc(CCC(=O)O)c1)=C2 [S7] | – | – | – | – | – | – | – | – | EC50 [1, 5]: > 10 µM; EC50 [2, 6]: 3.4e-06 ± 1e-07 M; Emax ([2]; read-out: PPAR max. rel. act.): 38 ± 1%; EC50 [3, 7]: 1.1 ± 0.1 µM; Emax ([3]; read-out: PPAR max. rel. act.): 30 ± 1%; EC50 [4, 7]: 5 ± 1.6 µM; Emax ([4]; read-out: PPAR max. rel. act.): 7.9 ± 1.4%
15 | O=C(O)CCc1cccc(NC(=O)c2ccc(O)cc2NC(=O)c2ccc3ccccc3c2)c1 [compound 21] | 16 | 4.5 ± 0.1 | 5.3e-06 ± 5e-07 | 54 | 2.4 ± 0.1 | 34 | 2.3 ± 0.3 | 20 | –
16 | O=C(O)CCc1cccc(NC(=O)c2ccccc2NC(=O)c2ccc(-c3cnoc3)cc2)c1 [compound 36] | – | – | – | – | – | – | – | – | EC50 [μM] FXR ([1]; HeLa, mean ± SEM, n = 3): Unstable; EC50 [μM] PPARα ([2]; HEK293T, mean ± SEM, n = 3): Unstable; EC50 [μM] PPARδ ([3]; HEK293T, mean ± SEM, n = 3): Unstable; EC50 [μM] PPARγ ([4]; HEK293T, mean ± SEM, n = 3): Unstable
17 | O=C(O)CNc1cccc(NC(=O)c2ccccc2NC(=O)c2ccc3ccccc3c2)c1 [compound 14] | 31 | 1.3 ± 0.1 | > 3e-05 | – | – | 83 | – | 7.7 | EC50 [3, 11]: 3.5 ± 0.2 µM; EC50 [4, 12]: 5.7 ± 0.1 µM
18 | O=C(O)COc1cccc(NC(=O)c2ccccc2NC(=O)c2ccc3ccccc3c2)c1 [compound 13] | 19 | 5 ± 1 | 1e-05 ± 1e-06 | 35 | 10 ± 1 | 43 | 19 ± 1 | 11 | –
19 | O=C(O)CCc1cccc(NC(=O)c2ccccc2NC(=O)c2ccc(-n3ccnn3)cc2)c1 [compound 39] | – | > 10 | > 1e-05 | – | – | – | – | – | EC50 [3, 11]: > 10 µM; EC50 [4, 12]: > 30 µM
20 | O=C(O)CCc1cccc(NC(=O)c2ccccc2NC(=O)c2ccc(-c3ccsc3)cc2)c1 [compound 34] | 18 | 0.6 ± 0.1 | 1.7e-06 ± 1e-07 | 32 | 1.6 ± 0.3 | 59 | 1.3 ± 0.2 | 17 | –
21 | Cc1ccc2c(c1)C=C(C(=O)Nc1ccccc1C(=O)Nc1cccc(CCC(=O)O)c1)CO2 [S4, 3-(3-[2-{6-Methyl-2H-chromene-3-carboxamido}benzamido]phenyl)propanoic acid] | – | – | – | – | – | – | – | – | EC50 [1, 5]: 5.4 ± 0.1 µM; FXR max. rel. act. ([1]; n ≥ 2): 12 ± 1%; EC50 [2, 6]: 8.4e-07 ± 1e-07 M; Emax ([2]; read-out: PPAR max. rel. act.): 29 ± 1%; EC50 [3, 7]: 1.5 ± 0.2 µM; Emax ([3]; read-out: PPAR max. rel. act.): 16 ± 1%; EC50 [4, 7]: 5 ± 1.6 µM; Emax ([4]; read-out: PPAR max. rel. act.): 36 ± 8%
22 | O=C(O)CCc1cccc(NC(=O)c2ccccc2NC(=O)C2=Cc3cc(F)ccc3OC2)c1 [S5, 3-(3-[2-{6-Fluoro-2H-chromene-3-carboxamido}benzamido]phenyl)propanoic acid] | – | – | – | – | – | – | – | – | EC50 [1, 5]: > 10 µM; EC50 [2, 6]: 1.8e-06 ± 6e-07 M; Emax ([2]; read-out: PPAR max. rel. act.): 20 ± 1%; EC50 [3, 7]: 2.6 ± 0.8 µM; Emax ([3]; read-out: PPAR max. rel. act.): 20 ± 3%; EC50 [4, 7]: 4.6 ± 0.8 µM; Emax ([4]; read-out: PPAR max. rel. act.): 17 ± 1%
23 | O=C(O)CCc1ccc(NC(=O)c2ccccc2NC(=O)c2ccc3ccccc3c2)cc1 [compound 12] | 21 ± 10 | 2.1 ± 0.1 | > 3e-05 | – | – | – | – | – | EC50 [3, 11]: > 30 µM; EC50 [4, 12]: > 30 µM
24 | O=C(O)CCc1cccc(NC(=O)c2ccccc2NC(=O)C2=Cc3cccc(Cl)c3OC2)c1 [S9] | – | – | – | – | – | – | – | – | EC50 [1, 5]: > 10 µM; EC50 [2, 6]: 2.3e-06 ± 1e-07 M; Emax ([2]; read-out: PPAR max. rel. act.): 35 ± 1%; EC50 [3, 7]: 0.91 ± 0.36 µM; Emax ([3]; read-out: PPAR max. rel. act.): 16 ± 2%; EC50 [4, 7]: 2.4 ± 0.2 µM; Emax ([4]; read-out: PPAR max. rel. act.): 7.6 ± 0.2%
25 | Cc1cccc(C(=O)Nc2cccc(CCC(=O)O)c2)c1NC(=O)c1ccc2ccccc2c1 [compound 16] | – | > 10 | 6.2e-06 ± 1e-07 | 31 | 2.7 ± 0.3 | 30 | 7.1 ± 1.3 | 6 | –
26 | O=C(O)CCc1cccc(NC(=O)c2ccccc2NC(=O)c2ccc(-c3ccoc3)cc2)c1 [compound 32] | 20 | 0.23 ± 0.01 | 1.6e-06 ± 3e-07 | 31 | – | – | 4.2 ± 0.9 | 38 | –
